Tests used:
Thermal stability (neat) = assay type: physicochemical
[1] = Hygroscopicity / weight change; assay type: physicochemical
Mouse = settings: in vivo; cited from earlier work

Row | thermally stable up to (temperature) (Thermal stability (neat)) | Hygroscopicity ([1]; compared with Lenalidomide hemihydrate) | SMILES | weight change [1] | Acute oral toxicity (LD50) (Mouse)
1 | ≥ 80 °C | lesser or comparable | Nc1cccc2c1CN(C1CCC(=O)NC1=O)C2=O (stereo not shown) [Lenalidomide-Resorcinol co-crystal] | does not exhibit significant weight change | –
2 | – | – | O=C1NS(=O)(=O)c2ccccc21 [Saccharin] | – | 17000 mg/kg

Reference: patent US12098136B2, “Crystalline forms of lenalidomide” (BIOCON LIMITED, priority 2017, dated 2024)
